As a reminder, the Ki is the dissociation constant of the complex between target and ligand, obtained from inhibition or displacement. The term IC50 denotes the concentration that inhibits the measured activity by half. As a reminder, the EC50 is the concentration needed to bring the measured effect to its halfway point.

SMILES strings stand for the structures.

We go through 7 compounds from patent US20080221193A1, “3-AMINO CHROMANE DERIVATIVES” (Wyeth, priority 2006, published 2008).

The target in assay [1] is T1, human 5-HT1A receptors (Homo sapiens, UniProt P08908).
T1 construct: expressed in transfected cells; host or cells: CHO cells, stably transfected
T1 sequence (P08908 1-422): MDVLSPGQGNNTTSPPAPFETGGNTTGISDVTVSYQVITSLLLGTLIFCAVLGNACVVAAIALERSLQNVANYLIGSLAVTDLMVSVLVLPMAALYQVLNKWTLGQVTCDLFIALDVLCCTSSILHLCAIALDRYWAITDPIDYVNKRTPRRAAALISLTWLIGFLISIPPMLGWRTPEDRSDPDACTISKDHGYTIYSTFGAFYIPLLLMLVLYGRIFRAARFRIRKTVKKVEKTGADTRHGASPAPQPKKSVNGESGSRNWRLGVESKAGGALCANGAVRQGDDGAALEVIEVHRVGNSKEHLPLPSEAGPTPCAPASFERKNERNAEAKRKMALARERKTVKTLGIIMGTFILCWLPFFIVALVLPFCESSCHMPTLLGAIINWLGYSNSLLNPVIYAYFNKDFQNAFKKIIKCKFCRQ
As to the kind of experiment: 8-OH-DPAT binding in CHO cells stably transfected with human 5HT1a receptor. The note with it: displacement of [3H]8-OH-DPAT, CHO cells with human 5-HT1A; read-out: 5-HT1A Receptor Affinity Ki. How it is done: High affinity for the serotonin 5-HT1A receptor was established by testing the claimed compound's ability to displace [^3H] 8-OH-DPAT (dipropylaminotetralin) from the 5-HT1A serotonin receptor following a modification of the procedure of Hall et al., (J. Neurochem., 1985, 44: 1685) which utilizes CHO cells stably transfected with human 5-HT1A receptors.
Stabily transfected CHO cells were grown in DMEM containing 10% heat inactivated FBS and non-essential amino acids. Cells were scraped off the plate, transferred to centrifuge tubes, and washed twice by centrifugation (2000 rpm for 10 min., 4° C.) in buffer (50 mM Tris pH 7.5). The resulting pellets were aliquoted and placed at −80° C. On day of assay, the cells were thawed on ice, and resuspended in buffer. The binding assay was performed in a 96 well microtiter plate in a total volume of […].
Non-specific binding was determined in the presence of […] 5HT, final ligand concentration is 1.5 nM. Following a 30 minute incubation at room temperature, the reaction was terminated by the addition of ice cold buffer and rapid filtration through a GF/B filter presoaked for 30 minutes in 0.5% PEI. Compounds were initially tested in a single point assay to determine percent inhibition at […]. Subsequently, Ki values were determined for compounds defined to be active.
(Loss of bound radioactivity is the signal in a displacement assay; it reports binding, not function.)

Assay [2] addresses h5-HT Transporter (Homo sapiens, UniProt P31645). As to the kind of experiment: h5-HT Transporter Function (Table 1). Format: biochemical.
In assay [3] the target is T1, human 5-HT1A receptors. As to the kind of experiment: 35S-GTPγS binding assay, membranes containing cloned human 5-HT1A receptors. The class given is biochemical. To be noted: for IC50: read-out: 5-HT1A Function GTPγS IC50. An excerpt: (§1) The agonist or antagonist activity at 5-HT1A receptors was established by using two different assays. The ^35S-GTPγS binding assay similar to that used by Lazareno and Birdsall (Br. J. Pharmacol., 1993, 109: 1120) was used to determine the test compound's ability to affect the binding of ^35S-GTPγS to membranes containing cloned human 5-HT1A receptors. Agonists produce an increase in binding whereas antagonists produce no increase but rather reverse the effects of the standard agonist 8-OH-DPAT. The test compound's maximum stimulatory effect is represented as the Emax, while its potency is defined by the EC50. The test compound's maximum inhibitory effect is represented as the Imax, while its potency is defined by the IC50. The second assay measured cAMP accumulation upon binding of the ligand to the 5-HT1A receptor. Antagonists block the effect of the standard agonist 8-OH-DPAT resulting in an increase in cAMP accumulation while agonists have the reverse effect. The test compound's maximum stimulatory or inhibitory effect is represented as the Emax while its potency is defined by either IC50 for an antagonist or EC50 for an agonist. [^3H]-8-OH-DPAT was used to determine maximum agonist or antagonist response in both functional assays.
For orientation: Binding of GTPγS marks nucleotide exchange on a G protein.

For assay [4], the target named is T2, h5HT1a receptor (Homo sapiens, UniProt P08908).
T2 construct: expressed in transfected cells; host or cells: CHO cells, stably transfected
T2 sequence (P08908 1-422): T1 sequence (P08908 1-422)
As to the kind of experiment: cAMP RIA in CHO cells stably transfected with the h5HT1a receptor. The class given is cell-based. To be noted: for EC50: agonist, forskolin-stimulated cAMP, read-out: 5-HT1A Function cAMP EC50; for IC50: antagonist, reversal of agonist 8-OH-DPAT, read-out: 5-HT1A Function cAMP IC50.
From the text: as §1
Stabily transfected CHO cells were grown in DMEM containing 10% heat inactivated FBS and non-essential amino acids. The cells were plated at a density of 10(6) cells per well in a 24 well plate and incubated for 2 days in a CO2 incubator. On the second day, the media was replaced with 0.5 ml treatment buffer (DMEM+25 mM HEPES, 5 mM theophylline, 10 uM pargyline) and incubated 10 minutes at 37° C.
Wells were treated with forskolin (1 μM final conc) followed immediately by test compound (0.1 and 1 uM for initial screen) and incubated for an additional 10 min at 37° C. The reaction was terminated by removal of the media and addition of 0.5 ml ice cold assay buffer (supplied in RIA kit). Plates were stored at −20° C. prior to assessment of cAMP formation by RIA.
Compounds shown to have no agonist activities were further analyzed for ability to reverse agonist activity. In separate experiments, 6 concentrations of antagonist were preincubated for 20 minutes prior to the addition of agonist and forskolin. Cells were harvested as described. The cAMP kit was supplied by Amersham and the RIA was performed as per kit instructions.

Sequence of h5-HT Transporter (P31645 whole entry): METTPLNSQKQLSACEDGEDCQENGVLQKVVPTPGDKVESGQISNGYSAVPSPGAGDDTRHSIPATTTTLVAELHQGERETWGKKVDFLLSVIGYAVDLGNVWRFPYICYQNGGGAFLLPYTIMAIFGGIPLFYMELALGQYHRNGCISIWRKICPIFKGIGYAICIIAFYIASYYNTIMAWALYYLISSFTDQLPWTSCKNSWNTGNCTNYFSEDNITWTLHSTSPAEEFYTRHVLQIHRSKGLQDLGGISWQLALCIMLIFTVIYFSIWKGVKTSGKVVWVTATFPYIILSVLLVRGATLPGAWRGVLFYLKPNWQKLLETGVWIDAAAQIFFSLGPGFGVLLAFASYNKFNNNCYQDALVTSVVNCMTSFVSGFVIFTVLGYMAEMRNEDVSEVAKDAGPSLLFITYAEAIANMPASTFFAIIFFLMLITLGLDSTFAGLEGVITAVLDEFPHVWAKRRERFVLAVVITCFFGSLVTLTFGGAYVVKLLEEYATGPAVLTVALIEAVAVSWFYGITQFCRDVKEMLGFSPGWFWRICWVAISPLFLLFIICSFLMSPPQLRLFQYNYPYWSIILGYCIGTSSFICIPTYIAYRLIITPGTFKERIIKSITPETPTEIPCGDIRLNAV

In the case of `CCc1ccc(C(N)=O)c2c1OC[C@H](N(CCCc1c[nH]c3ccc(F)cc13)C1CCC1)C2` [Example 21, (3R)-3-{cyclobutyl[3-(5-fluoro-1H-indol-3-yl)propyl]amino}-8-ethylchromane-5-carboxamide], the Ki in assay [1] stood at 5.93 nM. Besides, the IC50 worked out at 90.4 nM in assay [2] and 724 nM in assay [3]. The EC50 in assay [4] is 15.6 nM.
Turning to `CCCCN(CCCc1c[nH]c2ccc(F)cc12)[C@H]1COc2c(OC)ccc(C(N)=O)c2C1` [Example 11, (3R)-3-{butyl[3-(5-fluoro-1H-indol-3-yl)propyl]amino}-8-methoxychromane-5-carboxamide], the Ki in assay [1] was 98.7 nM. The IC50 came to 279 nM in assay [2], 3030 nM in assay [3] and 375 nM in assay [4].
`CCCN(CCCc1c[nH]c2ccc(F)cc12)[C@H]1COc2c(OC)ccc(C(N)=O)c2C1` [Example 10, (3R)-3-{propyl[3-(5-fluoro-1H-indol-3-yl)propyl]amino}-8-methoxychromane-5-carboxamide]: the Ki in assay [1] turned out to be 20.5 nM. Further, the figures for the IC50 in assay [2] and in assay [3] were 8 nM and 321 nM, respectively. In addition, in assay [4], the EC50 is 186 nM.
Consider `CSc1ccc(C(N)=O)c2c1OC[C@H](N(CCCc1c[nH]c3ccc(F)cc13)C1CCC1)C2` [Example 22, (3R)-3-{cyclobutyl[3-(5-fluoro-1H-indol-3-yl)propyl]amino}-8-(methylthio)chromane-5-carboxamide], for which the Ki in assay [1] was determined as 16.9 nM. Also, the IC50 in assay [2] was found to be 364 nM; in assay [3], 1180 nM; in assay [4], 59.8 nM.
As to `COc1ccc(C(N)=O)c2c1OC[C@H](NCCCc1c[nH]c3ccc(F)cc13)C2` [Example 1, (3R)-3-[3-(5-fluoro-1H-indol-3-yl)propyl]amino-8-methoxychromane-5-carboxamide], the Ki in assay [1] stood at 113 nM. The compound also had an IC50 in assay [2] of 234 nM. Moreover, the EC50 in assay [3] (agonist potency, read-out: 5-HT1A Function GTPγS EC50) was determined as 489 nM; in assay [4] it was 230 nM.
`CNc1ccc(C(N)=O)c2c1OC[C@H](N(CCCc1c[nH]c3ccc(F)cc13)C1CCC1)C2` [Example 25, (3R)-3-{cyclobutyl[3-(5-fluoro-1H-indol-3-yl)propyl]amino}-8-(methylamino)-chromane-5-carboxamide]: in assay [1], the Ki was determined as 51.5 nM. For the same compound, the values for the IC50 in assay [2], in assay [3] and in assay [4] were 137 nM, 3550 nM and 140 nM, respectively.
Consider `CCCOc1ccc(C(N)=O)c2c1OC[C@H](N(CCCc1c[nH]c3ccc(F)cc13)C1CCC1)C2` [Example 4, (3R)-3-{cyclobutyl[3-(5-fluoro-1H-indol-3-yl)propyl]amino}-8-propoxychromane-5-carboxamide], for which the Ki in assay [1] was determined as 70.1 nM. Moreover, the results for the IC50 in assay [2] and in assay [3] were 450 nM and 684 nM, respectively. In addition, the EC50 in assay [4] is 151 nM.
